In patent publication US4596824A, “p-Aminophenol with mucosecretolytic-fluidizing and antipyretic activity, a process for its preparation and pharmaceutical compositions thereof” (Camillo Corvi S.p.A., priority 1984, dated 1986):

Key:
[1] = system: rectal temperature, dry yeast-induced fever; experiment: Antipyretic activity in the rat (dry yeast fever); format: in vivo, rat (albino Wistar female); settings: for Antipyretic activity: rat, oral, temperature index over 4-25 h, relative activity, p-aminophenol taken equal to 100
Description: Method for studying the antipyretic activity in the rat.
Albino Wistar female rats, weighing 100-140g, are utilized. The animals having a rectal, basal temperature from 36° to 37° C. are selected.
The test substances are administered by oral way contemporaneously with the pyretic agent (dry yeast, suspended in water at the 20% concentration; volume administered 15 ml/kg subcutaneously) at groups of 5 animals per dose.
After 4,5,6,7 and 25 hours from the treatment, the rectal temperature of the animals is measured by an Ellab RM6 probe, connected to an Ellab mod. TE-3 thermometer.
The activity of the drugs is evaluated by utilizing a temperature index which is provided by the algebraic sum of the differences in the rectal temperature between the measure values at the various times and the basal value.

[2] = system: bronchial mucus of bronchitic rabbits; experiment: Fluidizing "in vivo" activity: viscosity of bronchial mucus of bronchitic rabbits; set-up: species or system rabbit (male, bronchitic by sulphuric acid aerosol); settings: for Fluidizing "in vivo" activity of bronchial mucus: bronchitic rabbits, oral, relative activity, d,l-trans-sobrerol taken equal to 100
Description: The viscosity of the mucus as withdrawn is studied by using a Contraves RM16 microviscosimeter and it is recorded by a Rheomat 15 T-FC apparatus.

[3] = system: bronchial secretion (mucoproduction); experiment: Bronchosecretagogue activity (mucoproduction) in the rabbit; format: in vivo, rabbit (male brown); settings: oral, relative activity, d,l-trans-sobrerol taken equal to 100
Description: Method of mucoproduction in the rabbit according to Scuri R. et al Boll. Chem. Farm.
Male brown rabbits weighing 2.8-3.5 kg are used. To said animals, by a surgical operation under anaesthesia, a T shaped tracheal cannula is applied, as described in the above bibliographic reference.
To the cannula, a container (a polypropylene 2 ml test tube) is applied for periodical collection of the bronchial secretion. The study of mucoproduction, started at the fourth day after the operation, is divided into two 4 hour periods for collecting and measuring the mucus, and precisely from 8:30 to 12:30 (I), and from 12:30 to 16:30 (II).
The activity of each drug is tested by administering the same by oesophageal way (os) at the beginning of the II period and by evaluating the percent increase of mucoproduction (weight of the mucus as collected) in the II period as compared with the I period.

[4] = in vivo; settings: mouse, po
Text: Method of studying LD50 in the mouse after a single oral administration.
Thereafter, the animals are fed again (Morini MIL fodder for mice).

[5] = Pharmacokinetics: plasma levels in the rat after oral administration (HPLC); format: in vivo; settings: Wistar rats, fasted, 400 mg/kg oral single administration, 0.5-6 h
Description: For this study, two groups of Wistar rats (170 280 g), fasting about 15 hours before treatment, are utilized. The animals were allowed to drink an aqueous 10% glucose solution. To the rats, the compound of formula I, by oral way (transoesophageal intubation) is administered at the dose of 400 mg/kg (a single administration) and at 0.5 h; 1 h; 1.5 h; 2 h; 3 h; 4 h; 6 h from administration, 5 rats/time are sacrificed. The blood, as collected into test tubes containing sodium heparin, is centrifuged and the plasma so obtained is utilized for quantitative analysis of the compound of formula (I) of the invention by means of high pressure liquid chromatography (HPLC) with an U.V. detector.

Compound	Antipyretic activity [1]	Fluidizing "in vivo" activity of bronchial mucus [2]	Bronchosecretagogue activity [3]	LD50 at 336 h [4] [mg/kg]	antipyretic activity compared with paracetamol or any drug of the same therapeutical class ([1]; statement in words)	mucosecretolytic-fluidizing activity ([2]; statement in words, versus activity ascribed to the d,l-trans-sobrerol moiety)	absorption (course of the plasmatic levels) [5]
Nc1ccc(O)cc1 [p-aminophenol]	100	0	0	–	–	–	–
CC1=CC[C@H](C(C)(C)O)C[C@H]1O (relative stereo) [d,l-trans-sobrerol]	0	100	100	2340	–	–	–
CC1=CC[C@H](C(C)(C)O)C[C@H]1OC(=O)CCC(=O)Nc1ccc(O)cc1 (relative stereo) [CO/1499, 5-[3-N-[(4-hydroxyphenyl)carboxamido]-1-oxo-propxy]-α,α-4-trimethyl-3-cyclohexene-1-methanol]	127	120	131	2070	equivalent of a dose of either paracetamol or any drug of the same therapeutical class	potency increase	quick and good absorption
